Assay results from the NIST ThermoML archive (doi:10.1016/j.fluid.2009.05.005).
Numbers after ± are expanded uncertainties. Values belong to the compound of their own block, whether it stands above or below them.

Assays:
[1] = activity coefficient (dimensionless); of the first substance listed, at infinite dilution; xn = mol fraction of the nth substance listed; details: 101 kPa, Liquid, circulation still, x1 = 0
[2] = Excess molar heat capacity; xn = mol fraction of the nth substance listed; details: 298.15 K; 101 kPa; Liquid; Flow calorimetry; x2 = 0
[3] = 333.15 K, Rayleigh distillation
[4] = 343.15 K, Rayleigh distillation
[5] = 353.15 K, Rayleigh distillation

SMILES: c1ccncc1 [pyridine] + O
- activity coefficient [1, 3]: 24 ± 0.1
- activity coefficient [1, 4]: 25.5 ± 0.1
- activity coefficient [1, 5]: 26 ± 0.1
- activity coefficient ([1]; 372.8 K, Rayleigh distillation): 25.4 ± 0.1

SMILES: C1CCNCC1 [piperidine] + O
- activity coefficient [1, 3]: 11.9 ± 0.1
- activity coefficient [1, 4]: 14.7 ± 0.1
- activity coefficient [1, 5]: 17.7 ± 0.1
- activity coefficient ([1]; 372.6 K, Rayleigh distillation): 21 ± 0.1

- molar heat capacity [2]: 131 ± 2 J/K/mol
SMILES: O [water] + CN1CCCC1=O

- activity coefficient ([1]; 333.15 K, differential distillation): 1.34 ± 0.06
- activity coefficient ([1]; 343.15 K, differential distillation): 1.56 ± 0.06
- activity coefficient ([1]; 353.15 K, differential distillation): 1.75 ± 0.06
- activity coefficient ([1]; 372.85 K, differential distillation): 2.07 ± 0.1
SMILES: CN1CCCC1=O [N-methylpyrrolidone] + O
